In PubChem BioAssay AID2060891 (Molecular Pharmacology Branch, DTP, NCI, 2025):
Where “and” joins values, the source holds several entries; their conditions need not be identical. Identical values can stand only once.

Test system: K98450-129-R-PDC complex spheroid growth, percent test/control
Assay: Anticancer human tumor K98450-129-R-PDC patient-derived colon adenocarcinoma cell line growth inhibition [RAS]
Conditions: for viability, T/C: stronger effect = lower value
Summary of the method: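 Tumour cells grown as complex spheroids with HUVEC endothelial cells and mesenchymal stem cells, treated with RAS pathway inhibitor combinations. Each agent spans half-log steps from near clinical Cmax, or 10 microM where Cmax is unknown.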

[1] = curve of first compound, second compound 0.0316 µM
[2] = curve of first compound, second compound 0.1 µM
[3] = curve of first compound, second compound 0.316 µM
[4] = curve of first compound, second compound 1 µM
[5] = curve of first compound, second compound 3.16 µM
[6] = curve of first compound, second compound 10 µM
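Note: spheroids exposed to agents for seven days before the viability readout.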
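Throughout, for viability, T/C: luminescence used as a proxy for viable cell amount.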

NC1c2ccccc2OC12CCN(c1cnc3c(N4CCCc5ncccc54)n[nH]c3n1)CC2 (stereo unspecified) + C#Cc1c(F)ccc2cc(O)cc(-c3ncc4c(N5CC6CCC(C5)N6)nc(OCC56CCCN5CC(F)C6)nc4c3F)c12
IC50 [1]: 195 nM
IC50 [2]: 189 nM
IC50 [3]: 165 nM
IC50 [4]: 141 nM
IC50 [5]: 75.8 nM
IC50 [6]: 48 nM
viability, T/C (second compound 0.0316 µM, first compound 0.0316 µM): 92.2%
viability, T/C (second compound 0.0316 µM, first compound 0.1 µM): 73.8%
viability, T/C (second compound 0.0316 µM, first compound 0.316 µM): 32.1%
viability, T/C (second compound 0.0316 µM, first compound 1 µM): 17.4%
viability, T/C (second compound 0.0316 µM, first compound 3.16 µM): 11.8%
viability, T/C (second compound 0.0316 µM, first compound 10 µM): 9.37%
viability, T/C (second compound 0.1 µM, first compound 0.0316 µM): 97.8%
viability, T/C (second compound 0.1 µM, first compound 0.1 µM): 72.7%
viability, T/C (second compound 0.1 µM, first compound 0.316 µM): 31.3%
viability, T/C (second compound 0.1 µM, first compound 1 µM): 14%
viability, T/C (second compound 0.1 µM, first compound 3.16 µM): 9.92%
viability, T/C (second compound 0.1 µM, first compound 10 µM): 6.11%
viability, T/C (second compound 0.316 µM, first compound 0.0316 µM): 96.6%
viability, T/C (second compound 0.316 µM, first compound 0.1 µM): 70.2%
viability, T/C (second compound 0.316 µM, first compound 0.316 µM): 23.4%
viability, T/C (second compound 0.316 µM, first compound 1 µM): 10.3%
viability, T/C (second compound 0.316 µM, first compound 3.16 µM): 8.37%
viability, T/C (second compound 0.316 µM, first compound 10 µM): 6.2%
viability, T/C (second compound 1 µM, first compound 0.0316 µM): 91.2%
viability, T/C (second compound 1 µM, first compound 0.1 µM): 65.2%
viability, T/C (second compound 1 µM, first compound 0.316 µM): 14.2%
viability, T/C (second compound 1 µM, first compound 1 µM): 8.69%
viability, T/C (second compound 1 µM, first compound 3.16 µM): 6.98%
viability, T/C (second compound 1 µM, first compound 10 µM): 6.07%
viability, T/C (second compound 3.16 µM, first compound 0.0316 µM): 78.2%
viability, T/C (second compound 3.16 µM, first compound 0.1 µM): 41.1%
viability, T/C (second compound 3.16 µM, first compound 0.316 µM): 10.8%
viability, T/C (second compound 3.16 µM, first compound 1 µM): 7.66%
viability, T/C (second compound 3.16 µM, first compound 3.16 µM): 5.66%
viability, T/C (second compound 3.16 µM, first compound 10 µM): 4.62%
viability, T/C (second compound 10 µM, first compound 0.0316 µM): 63.9%
viability, T/C (second compound 10 µM, first compound 0.1 µM): 25.6%
viability, T/C (second compound 10 µM, first compound 0.316 µM): 7.94%
viability, T/C (second compound 10 µM, first compound 1 µM): 6.21%
viability, T/C (second compound 10 µM, first compound 3.16 µM): 4.84%
viability, T/C (second compound 10 µM, first compound 10 µM): 2.23%

CC(C)NCC(C(=O)N1CCN(c2ncnc3c2C(C)CC3O)CC1)c1ccc(Cl)cc1 (stereo unspecified)
viability, T/C (compound 0.0316 µM): 103% [middle of 4 runs]
viability, T/C (compound 0.1 µM): 97.1% [middle of 4 runs]
viability, T/C (compound 0.316 µM): 104% (2×) and 111% and 88.1%
viability, T/C (compound 1 µM): 102% [middle of 4 runs]
viability, T/C (compound 3.16 µM): 104% [middle of 4 runs]
viability, T/C (compound 10 µM): 101% [middle of 4 runs]
IC50 (curve of compound): > 10000 nM

CCc1c2c(nc3ccc(O)cc13)-c1cc3c(c(=O)n1C2)COC(=O)[C@]3(O)CC + C#Cc1c(F)ccc2cc(O)cc(-c3ncc4c(N5CC6CCC(C5)N6)nc(OCC56CCCN5CC(F)C6)nc4c3F)c12
IC50 [1]: 36.4 nM
IC50 [2]: 44.1 nM
IC50 [3]: 47.9 nM
IC50 [4]: 46.9 nM
IC50 [5]: 43.3 nM
IC50 [6]: 32.8 nM
viability, T/C (second compound 0.0316 µM, first compound 0.000949 µM): 103%
viability, T/C (second compound 0.0316 µM, first compound 0.003 µM): 102%
viability, T/C (second compound 0.0316 µM, first compound 0.00949 µM): 75.7%
viability, T/C (second compound 0.0316 µM, first compound 0.03 µM): 52.2%
viability, T/C (second compound 0.0316 µM, first compound 0.0949 µM): 43.3%
viability, T/C (second compound 0.0316 µM, first compound 0.3 µM): 33.5%
viability, T/C (second compound 0.1 µM, first compound 0.000949 µM): 109%
viability, T/C (second compound 0.1 µM, first compound 0.003 µM): 101%
viability, T/C (second compound 0.1 µM, first compound 0.00949 µM): 80.5%
viability, T/C (second compound 0.1 µM, first compound 0.03 µM): 52.5%
viability, T/C (second compound 0.1 µM, first compound 0.0949 µM): 44.4%
viability, T/C (second compound 0.1 µM, first compound 0.3 µM): 33%
viability, T/C (second compound 0.316 µM, first compound 0.000949 µM): 108%
viability, T/C (second compound 0.316 µM, first compound 0.003 µM): 101%
viability, T/C (second compound 0.316 µM, first compound 0.00949 µM): 84.5%
viability, T/C (second compound 0.316 µM, first compound 0.03 µM): 54.4%
viability, T/C (second compound 0.316 µM, first compound 0.0949 µM): 43.6%
viability, T/C (second compound 0.316 µM, first compound 0.3 µM): 34%
viability, T/C (second compound 1 µM, first compound 0.000949 µM): 109%
viability, T/C (second compound 1 µM, first compound 0.003 µM): 100%
viability, T/C (second compound 1 µM, first compound 0.00949 µM): 86.8%
viability, T/C (second compound 1 µM, first compound 0.03 µM): 54%
viability, T/C (second compound 1 µM, first compound 0.0949 µM): 42.9%
viability, T/C (second compound 1 µM, first compound 0.3 µM): 36.9%
viability, T/C (second compound 3.16 µM, first compound 0.000949 µM): 95.7%
viability, T/C (second compound 3.16 µM, first compound 0.003 µM): 89.3%
viability, T/C (second compound 3.16 µM, first compound 0.00949 µM): 78.1%
viability, T/C (second compound 3.16 µM, first compound 0.03 µM): 51.9%
viability, T/C (second compound 3.16 µM, first compound 0.0949 µM): 43.6%
viability, T/C (second compound 3.16 µM, first compound 0.3 µM): 33.1%
viability, T/C (second compound 10 µM, first compound 0.000949 µM): 87.2%
viability, T/C (second compound 10 µM, first compound 0.003 µM): 84.3%
viability, T/C (second compound 10 µM, first compound 0.00949 µM): 75.5%
viability, T/C (second compound 10 µM, first compound 0.03 µM): 50.9%
viability, T/C (second compound 10 µM, first compound 0.0949 µM): 37.2%
viability, T/C (second compound 10 µM, first compound 0.3 µM): 33.8%
